Test results: US9809623B2, “α4β7 peptide monomer and dimer antagonists” (Protagonist Therapeutics, Inc., priority 2014, dated 2017)
Where two headings read alike, the source gives them in different places. Numbered stars: 1 amine (or outer) side, 2 acyl side, 3 side chain; on linkers, the order of the positions; unused ones are H or OH. Bridge positions count the residues as written; N and C are the ends. Square brackets hold non-standard residues; d marks the D form. Peptide text beside a SMILES is read from it. I, II: the chains in the order shown. ξ: configuration not given here. Phe(4-tBu) = CC(C)(C)c1ccc(C[C@H](N)C(=O)O)cc1; Diglycolyl = O=C(COCC(=O)[*:2])[*:1]; NMeR = CN[C@@H](CCCNC(=N)N)C(=O)O; β3hE = N[C@@H](CCC(=O)O)CC(=O)O; Thr(3ξ) = CC(O)[C@H](N)C(=O)O; Pen = CC(C)(S)[C@H](N)C(=O)O

Columns and labels:
[1] = molecular target: α4β1 (Homo sapiens, UniProt P05556+P13612); experiment: PBMC Memory T Cell Adhesion Assay, adhesion to VCAM-1; assay type: cell-based; conditions: memory T cells isolated from human PBMC donors; read-out: IC50 (nM), memory T cells, Integrin α4β1, Ligand VCAM-1
Procedure: Fresh CD4+/CD45RO+ memory T cells were isolated from human peripheral blood mononuclear cell (PBMC) donors by Aragen Bioscience Inc. (Morgan Hill, Calif.). The assay plate was prepared using IgG Fc capture antibody (donkey anti human) immobilized at 500 ng/well in 50 mM sodium bicarbonate buffer, pH 9.5, ON, 4C onto a Greiner Fluotrac plate (100 ul per well). The plate was rinsed two time with Blocking Buffer (25 mM Tris HCl, pH7.5, 150 mM NaCl, 1.5% BSA, 0.05% Tween), and blocked with Blocking Buffer for 2 hours at 37 C or 5 hours at RT using 200 ul per well. The Blocking Buffer was removed and either MAdCAM-1 or VCAM-1 at 400 ng/well in Blocking Buffer was added and the plate incubated overnight at 4C (100 ul per well). The plate was washed two times with Blocking Buffer, and rinsed once with 200 ul Binding Media (DMEM phenol red free, 10 mM HEPES, 1×Na pyruvate, 1× Glutamine, and supplemented with 1 mM MnCl2 prior to use). To prepare cells, approximately 25 million CD4+/CD45RO+ memory T cells were counted by trypan blue exclusion using a haemocytometer to determine viability and cell count. […] Fluorescence intensity was measured using a Molecular Devices Gemini EM Fluorescent Plate Reader (Ex 485/Em530, Bottom Read, Reading Sensitivity=20). IC50 curves are generated using Graph Pad Prism and the curves analyzed using analyzed using a non-linear regression (four parameters) algorithm. […]

[2] = Tissue exposure after oral administration, 8 days; assay type: in vivo; conditions: cynomolgus monkey; for level at time molar at 4 h: 4 hours after the last dose
Procedure: To determine tissue exposure following oral administration of Peptide X, Cynomolgus monkeys were dosed with Peptide X PO QD for 8 days at 12.5 mg/kg, 25 mg/kg or 75 mg/kg. The vehicle was 50 mM phosphate buffer, pH 7. Oral bioavailability in cyno (% F) was about 0.3%. Samples were collected 4 hours after the last dose.

[3] = test system: C57BL/6 male mice, DSS colitis; assay type: in vivo
Procedure: Colitis was induced in C57BL/6 male mice (10 animals per group) by exposure to 3% DSS-treated drinking water from day 0 to day 5, when animals were shifted to normal drinking water. Once daily, animal deaths were recorded, and surviving animals were weighed and assessed visually for the presence of diarrhea and/or bloody stool. Immediately prior to sacrifice on day 9, colitis severity was assessed in all animals using video endoscopy, and the resulting images were scored for colitis severity by an observer blinded to group identity.
Starting on day 0, mice were given twice-daily oral doses of either a vehicle/sham control (Group 1) or Peptide X (Group 2: 10 mg/kg, PO, BID). On day 9, only the AM treatment dose was administered. Animals in Group 2 also were administered Peptide X in their drinking water at a concentration of 0.2 mg/mL. The drinking water bottle weights for Groups 1 and 2 were measured, and water consumption was used to estimate the peptide dose ingested via the drinking water. Based on daily water consumption, the average daily Peptide X dose from the combination of oral gavage and drinking water was estimated to be 49 mg/kg.
Mice were sacrificed on day 9, approximately four hours after the final of gavage dose administration. Spleen, Peyer's patches (PP), mesenteric lymph nodes (MLN), and blood were collected from each animal and processed for FACS analysis of α4 and β7 expression on TH memory cells. Takedown and FACS analysis occurred on the same day.
For PK measurements, colon sections from the proximal and distal colon were collected at ˜4 hours after the last AM dose and analyzed by mass spectrometry. Exposure in the proximal colon was approximately 3-fold higher than that in the distal colon (FIG. 12). The concentration of Peptide X in the blood was 84-fold and 31-fold lower compared to that in the proximal and distal colon, respectively. Nonetheless at this time point, the plasma concentration was ˜80-fold greater than the Peptide IC50 value for blocking α4β7 binding to MAdCAM.

[4] = test system: C57BL/6 mice, DSS colitis; experiment: Additional 9 day DSS colitis studies; assay type: in vivo, mouse
Procedure: In this 9 day DSS colitis study, C57BL/6 mice were treated with 3% DSS from Day 1 to Day 6, and switched to normal water until Day 10. Daily dosing was PO BID plus drinking water for Peptide X, and 25 mg/kg IP every 3 days for the anti-α4β7 antibody DATK32. PP and blood were collected and levels of α4β7+ memory T cells analyzed by FACS.

[5] = molecular target: αLβ2 (Homo sapiens, UniProt P05107+P20701); experiment: IC50 for αLβ2 (assay not further described)
Procedure: Biochemical competition ELISA assays were performed for α4β7 and α4β1 integrins. The ELISA assay for α4β7 is based on binding of MAdCAM-1 to immobilized α4β7, whereas the α4β1 ELISA relies on binding of soluble α4β1 to immobilized VCAM-1. These assays are described in Example 2. Under 1 mM Mg^2+ binding conditions, the IC50 for Peptide X was 3 nM and >10,000 nM for α4β7 and α4β1, respectively. In addition, the IC50 for Peptide X was >100 uM for both α4β1 and αLβ2. The IC50 of Peptide X for α4β7 T cells was 1 nM.

[6] = 10 mg/kg PO BID plus 0.2 mg/mL in drinking water, day 9

Sequence of αLβ2 (P20701 26-1170): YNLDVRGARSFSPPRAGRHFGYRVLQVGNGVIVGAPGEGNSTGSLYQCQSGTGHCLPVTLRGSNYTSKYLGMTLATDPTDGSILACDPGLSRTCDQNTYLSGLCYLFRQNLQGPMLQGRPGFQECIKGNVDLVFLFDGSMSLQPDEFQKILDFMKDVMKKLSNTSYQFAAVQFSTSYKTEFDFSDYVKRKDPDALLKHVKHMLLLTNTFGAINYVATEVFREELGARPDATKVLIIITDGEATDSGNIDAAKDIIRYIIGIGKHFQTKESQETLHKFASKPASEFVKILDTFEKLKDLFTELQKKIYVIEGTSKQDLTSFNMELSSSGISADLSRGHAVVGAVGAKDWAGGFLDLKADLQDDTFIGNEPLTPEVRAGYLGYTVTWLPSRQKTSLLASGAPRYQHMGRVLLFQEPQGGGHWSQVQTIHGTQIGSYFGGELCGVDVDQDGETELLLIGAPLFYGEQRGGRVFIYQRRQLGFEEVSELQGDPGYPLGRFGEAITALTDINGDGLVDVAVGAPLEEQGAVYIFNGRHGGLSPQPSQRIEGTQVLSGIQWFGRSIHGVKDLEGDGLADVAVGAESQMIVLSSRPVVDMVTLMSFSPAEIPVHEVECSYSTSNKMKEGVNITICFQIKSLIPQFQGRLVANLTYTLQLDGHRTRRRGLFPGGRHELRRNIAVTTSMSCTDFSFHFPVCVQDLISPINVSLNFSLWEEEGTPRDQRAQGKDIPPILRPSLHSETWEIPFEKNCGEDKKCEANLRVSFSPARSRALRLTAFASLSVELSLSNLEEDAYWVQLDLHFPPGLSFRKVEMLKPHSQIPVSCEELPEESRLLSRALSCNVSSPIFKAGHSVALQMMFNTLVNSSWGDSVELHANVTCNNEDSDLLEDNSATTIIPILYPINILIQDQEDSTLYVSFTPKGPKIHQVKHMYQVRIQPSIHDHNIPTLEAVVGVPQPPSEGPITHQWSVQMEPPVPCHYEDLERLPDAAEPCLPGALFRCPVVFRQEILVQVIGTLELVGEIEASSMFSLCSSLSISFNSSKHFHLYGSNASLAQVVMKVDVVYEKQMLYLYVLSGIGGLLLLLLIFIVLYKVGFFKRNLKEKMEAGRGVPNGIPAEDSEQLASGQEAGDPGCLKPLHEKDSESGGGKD
Sequence of αLβ2 (P05107 23-769): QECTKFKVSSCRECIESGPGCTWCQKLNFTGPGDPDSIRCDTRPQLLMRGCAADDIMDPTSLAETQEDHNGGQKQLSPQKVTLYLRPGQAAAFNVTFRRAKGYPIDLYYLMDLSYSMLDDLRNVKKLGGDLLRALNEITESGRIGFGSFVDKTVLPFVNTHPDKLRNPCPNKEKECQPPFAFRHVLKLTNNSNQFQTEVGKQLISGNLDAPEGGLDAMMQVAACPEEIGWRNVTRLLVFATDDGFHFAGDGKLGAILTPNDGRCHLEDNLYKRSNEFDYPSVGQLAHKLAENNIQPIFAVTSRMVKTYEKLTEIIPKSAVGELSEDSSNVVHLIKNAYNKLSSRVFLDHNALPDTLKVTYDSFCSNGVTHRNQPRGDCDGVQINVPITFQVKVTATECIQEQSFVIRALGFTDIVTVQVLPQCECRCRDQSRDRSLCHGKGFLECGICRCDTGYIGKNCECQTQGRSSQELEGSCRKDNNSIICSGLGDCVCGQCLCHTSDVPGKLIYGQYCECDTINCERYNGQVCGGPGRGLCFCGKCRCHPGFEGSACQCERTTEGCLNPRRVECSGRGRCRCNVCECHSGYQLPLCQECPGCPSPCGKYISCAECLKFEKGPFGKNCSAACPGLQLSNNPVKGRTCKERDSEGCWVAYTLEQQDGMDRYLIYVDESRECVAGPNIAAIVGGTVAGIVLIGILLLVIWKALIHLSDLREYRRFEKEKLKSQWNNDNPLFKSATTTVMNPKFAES
Sequence of α4β1 (P13612 34-1032): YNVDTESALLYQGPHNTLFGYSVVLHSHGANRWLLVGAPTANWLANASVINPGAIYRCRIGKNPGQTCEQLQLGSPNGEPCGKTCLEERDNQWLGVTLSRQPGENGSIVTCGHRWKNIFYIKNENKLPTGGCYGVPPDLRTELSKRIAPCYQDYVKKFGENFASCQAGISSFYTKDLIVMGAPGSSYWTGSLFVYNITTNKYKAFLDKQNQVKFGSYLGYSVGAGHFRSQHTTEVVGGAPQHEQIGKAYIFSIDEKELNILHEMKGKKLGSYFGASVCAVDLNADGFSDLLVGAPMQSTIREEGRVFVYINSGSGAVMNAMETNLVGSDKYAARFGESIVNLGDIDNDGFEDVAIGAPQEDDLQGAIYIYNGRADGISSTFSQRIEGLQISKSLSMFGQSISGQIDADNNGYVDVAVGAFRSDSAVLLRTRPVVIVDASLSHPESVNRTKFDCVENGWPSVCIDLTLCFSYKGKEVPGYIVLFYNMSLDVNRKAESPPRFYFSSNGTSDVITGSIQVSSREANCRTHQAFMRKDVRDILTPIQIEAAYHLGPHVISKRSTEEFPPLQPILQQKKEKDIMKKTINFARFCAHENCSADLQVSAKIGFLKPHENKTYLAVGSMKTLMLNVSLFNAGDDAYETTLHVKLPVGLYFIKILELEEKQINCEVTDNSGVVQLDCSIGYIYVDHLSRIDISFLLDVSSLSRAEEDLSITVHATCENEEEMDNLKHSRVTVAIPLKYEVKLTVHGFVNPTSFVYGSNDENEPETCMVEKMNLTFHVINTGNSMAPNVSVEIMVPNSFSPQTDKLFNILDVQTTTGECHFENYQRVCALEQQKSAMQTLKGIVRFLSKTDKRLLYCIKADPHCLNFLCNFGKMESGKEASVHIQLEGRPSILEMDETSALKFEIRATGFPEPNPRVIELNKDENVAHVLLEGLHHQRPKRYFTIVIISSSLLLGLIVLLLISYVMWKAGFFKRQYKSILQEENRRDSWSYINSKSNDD
Sequence of α4β1 (P05556 21-798): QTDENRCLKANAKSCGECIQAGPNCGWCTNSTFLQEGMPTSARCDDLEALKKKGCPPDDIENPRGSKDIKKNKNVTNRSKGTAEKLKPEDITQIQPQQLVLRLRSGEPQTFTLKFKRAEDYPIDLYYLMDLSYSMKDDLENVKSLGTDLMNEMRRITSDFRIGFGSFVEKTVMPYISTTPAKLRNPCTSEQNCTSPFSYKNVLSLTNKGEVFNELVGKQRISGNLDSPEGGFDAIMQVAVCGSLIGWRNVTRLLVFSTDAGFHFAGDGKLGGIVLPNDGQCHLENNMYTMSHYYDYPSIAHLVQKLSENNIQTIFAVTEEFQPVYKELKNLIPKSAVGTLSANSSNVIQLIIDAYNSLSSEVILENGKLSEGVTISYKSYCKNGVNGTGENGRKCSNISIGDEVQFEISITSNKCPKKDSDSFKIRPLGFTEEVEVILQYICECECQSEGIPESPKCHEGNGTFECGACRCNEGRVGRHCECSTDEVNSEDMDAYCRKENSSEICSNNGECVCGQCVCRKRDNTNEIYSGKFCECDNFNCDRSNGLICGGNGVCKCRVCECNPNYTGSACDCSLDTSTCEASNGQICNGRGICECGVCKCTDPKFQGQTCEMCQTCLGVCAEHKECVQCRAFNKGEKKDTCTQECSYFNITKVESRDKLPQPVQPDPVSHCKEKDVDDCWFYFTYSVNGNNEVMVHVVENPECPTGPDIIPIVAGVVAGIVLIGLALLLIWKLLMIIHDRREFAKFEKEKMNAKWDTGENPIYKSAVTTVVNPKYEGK

CC(=O)N[C@@H]1C(=O)N(C)[C@@H](CCCNC(=N)N)C(=O)N[C@@H](CO)C(=O)N[C@@H](CC(=O)O)C(=O)N[C@@H](C(C)O)C(=O)N[C@@H](CC(C)C)C(=O)N[C@H](C(=O)N[C@@H](Cc2ccc(C(C)(C)C)cc2)C(=O)N[C@@H](CCC(=O)O)CC(=O)N[C@H](CCCCNC(=O)COCC(=O)NCCCC[C@@H](NC(=O)C[C@H](CCC(=O)O)NC(=O)[C@H](Cc2ccc(C(C)(C)C)cc2)NC(=O)[C@H]2NC(=O)[C@H](CC(C)C)NC(=O)[C@H](C(C)O)NC(=O)[C@H](CC(=O)O)NC(=O)[C@H](CO)NC(=O)[C@H](CCCNC(=N)N)N(C)C(=O)[C@@H](NC(C)=O)C(C)(C)SSC2(C)C)C(N)=O)C(N)=O)C(C)(C)SSC1(C)C (stereo partly drawn) [Peptide X, [Ac-Pen-(N-Me-Arg)-Ser-Asp-Thr-Leu-Pen-(Phe(4-tBu))-(β-homoGlu)-(D-Lys)]2-DIG] (I: Ac-[Pen][NMeR]SD[Thr(3ξ)]L[Pen][Phe(4-tBu)][β3hE][dK]-NH2 / II: Ac-[Pen][NMeR]SD[Thr(3ξ)]L[Pen][Phe(4-tBu)][β3hE][dK]-NH2; disulfide I:1-I:7, II:1-II:7; linker I:10-II:10 via Diglycolyl)
IC50 [1]: > 100000 nM | level at time molar at 4 h ([2]; colon, 12.5 mg/kg PO QD 8 days, read-out: Peptide X exposure, Colon): 4.16 µM | level at time molar at 4 h ([2]; colon, 25 mg/kg PO QD 8 days, read-out: Peptide X exposure, Colon): 1.55 µM | level at time molar at 4 h ([2]; colon, 75 mg/kg PO QD 8 days, read-out: Peptide X exposure, Colon): 15.5 µM | bioavailability ([2]; in vivo, oral, read-out: Oral bioavailability in cyno (% F)): ~0.3% | level at time molar at 4 h ([2]; mesenteric lymph node, 12.5 mg/kg PO QD 8 days, read-out: Peptide X exposure, Mesenteric Lymph Node): 1.5 µM | level at time molar at 4 h ([2]; mesenteric lymph node, 25 mg/kg PO QD 8 days, read-out: Peptide X exposure, Mesenteric Lymph Node): 0.138 µM | level at time molar at 4 h ([2]; mesenteric lymph node, 75 mg/kg PO QD 8 days, read-out: Peptide X exposure, Mesenteric Lymph Node): 1.98 µM | level at time molar at 4 h ([2]; plasma, 12.5 mg/kg PO QD 8 days, read-out: Peptide X exposure, Plasma): 0.002 µM | level at time molar at 4 h ([2]; plasma, 25 mg/kg PO QD 8 days, read-out: Peptide X exposure, Plasma): 0.005 µM | level at time molar at 4 h ([2]; plasma, 75 mg/kg PO QD 8 days, read-out: Peptide X exposure, Plasma): 0.021 µM | level at time molar at 4 h ([2]; small intestine, 12.5 mg/kg PO QD 8 days, read-out: Peptide X exposure, Small Intestine): 0.661 µM | level at time molar at 4 h ([2]; small intestine, 25 mg/kg PO QD 8 days, read-out: Peptide X exposure, Small Intestine): 0.293 µM | level at time molar at 4 h ([2]; small intestine, 75 mg/kg PO QD 8 days, read-out: Peptide X exposure, Small Intestine): 7.84 µM | endoscopy score (mean±SD) [3, 6]: 1.78±1.5 | reduction of endoscopy scores vs vehicle [3, 6]: 32% | effect on weight loss, fluid intake, colon weight or length, presence of bloody stool and diarrhea ([3]; 10 mg/kg PO BID plus drinking water): no significant effect | visual assessment of endoscopy images ([3]; compared to the vehicle control): reduced colonic friability and improved mucosal healing | Exposure in the proximal colon higher than in the distal colon ([3]; mouse, in vivo): approximately 3 fold | decrease in percentage of α4β7+ memory cells relative to total cells in Peyer's Patches ([3]; vs vehicle, day 9): 55% | decrease in percentage of α4β7+ memory cells relative to total cells in the MLN ([3]; vs vehicle, day 9): 23% | increase in total α4β7 memory cells per mL blood ([3]; vs vehicle, day 9): 42% | increase in total α4β7 memory cells recovered from the spleen ([3]; vs vehicle, day 9): 73% | body weight loss and mucosal injury as assessed by endoscopy ([4]; DSS mice orally dosed daily for 9 days): dose-dependent reduction in body weight loss and mucosal injury | CD4+CD44highCD45RBlowβ7+ T cells in MLN, Peyer's Patches, spleen and blood ([4]; DSS mice orally dosed daily for 9 days, FACS): dose dependent reduction | α4β7+ T cells in gut lymphoid tissues and blood ([4]; PO BID plus drinking water): reduced α4β7+ T cells in gut lymphoid tissues and redirected them to blood | IC50 [5]: > 100 µM
